Results reported in patent US4337199A, “Antibiotic β-lactam compounds, production thereof, and their use as antimicrobial agent” (Sanraku-Ocean Co., Ltd., priority 1978, dated 1982).
Converted amounts (≈) assume the structure as drawn.

Legend:
[1] = tested on: Proteus sp. P22; assay: minimum inhibitory concentration, agar dilution assay; assay type: cell-based; conditions: agar dilution, 35° C., 20 hours; read-out: minimum inhibitory concentration
Procedure: (§1) The antibiotic activities shown in Tables I-1 to I-8 above were determined in the following manner.
(§2) The minimum inhibitory concentrations of the compounds of formula (I-a-1) or (I-b-1) in Tables I-1 to I-7 and the known compounds in Table I-8 on the various microorganisms shown in the above tables were measured by an agar dilution assay method using a brain heart infusion agar medium "Difco" (a product of Difco Laboratories Inc.)
(§3) A sample of the test compound was dissolved in sterile distilled water and diluted to prepare a two-fold dilution series of the compound solution. In a petri plate of 9 cm diameter, 1 ml of the compound solution was added to 9 ml of molten sterile heart infusion agar medium (Difco Laboratories Inc.) at about 60° C. to prepare the compound-containing agar plate. An overnight culture of each test organism indicated in the above table which was prepared by stationary cultivation in Trypto-Soy broth (Eiken Chemi. Co., Ltd.) at 35° C. for 18 to 20 hours, was diluted with the Trypto-Soy broth to give approximately 10^8 cells/ml and the diluted inoculum was inoculated onto the compound-containing agar plates. After cultivating the plates at 35° C. for 20 hours, the growth of the organism was observed. The minimum concentration of the compound at which no growth of the microorganism was noted was determined, and defined as the minimum inhibitory concentration of the test compound.

[2] = tested on: Bacillus subtilis ATCC 6633; assay: as above; assay type: cell-based; conditions: ATCC6633, agar dilution, 35° C., 20 hours, read-out: minimum inhibitory concentration
Procedure: as §1, §2, §3

[3] = tested on: Enterobacter aerogenes E19; assay: as above; assay type: cell-based; conditions: Klebsiella aerogenes, E19; agar dilution, 35° C., 20 hours; read-out: minimum inhibitory concentration
Procedure: as §1, §2, §3

[4] = tested on: Enterobacter sp. E8; assay: as above; assay type: cell-based; conditions: SP.E8, agar dilution, 35° C., 20 hours, read-out: minimum inhibitory concentration
Procedure: as §1, §2, §3

[5] = tested on: Proteus vulgaris GN76; assay: as above; assay type: cell-based; conditions: GN76, agar dilution, 35° C., 20 hours, read-out: minimum inhibitory concentration
Procedure: as §1, §2, §3

[6] = tested on: Staphylococcus epidermidis; assay: as above; assay type: cell-based; conditions: agar dilution, 35° C., 20 hours, read-out: minimum inhibitory concentration
Procedure: as §1, §2, §3

[7] = tested on: Escherichia coli RGN 823; assay: as above; assay type: cell-based; conditions: RGN823, agar dilution, 35° C., 20 hours, read-out: minimum inhibitory concentration
Procedure: as §1, §2, §3

[8] = tested on: Providencia sp. P8; assay: as above; assay type: cell-based; conditions: SP.P8, agar dilution, 35° C., 20 hours, read-out: minimum inhibitory concentration
Procedure: as §1, §2, §3

[9] = tested on: Pseudomonas aeruginosa NCTC10490; assay: as above; assay type: cell-based; conditions: NCTC10490, agar dilution, 35° C., 20 hours, read-out: minimum inhibitory concentration
Procedure: as §1, §2, §3

[10] = tested on: Pseudomonas aeruginosa IFO3445; assay: as above; assay type: cell-based; conditions: IFO3445, agar dilution, 35° C., 20 hours, read-out: minimum inhibitory concentration
Procedure: as §1, §2, §3

[11] = tested on: Serratia marcescens T55; assay: as above; assay type: cell-based; conditions: T55, agar dilution, 35° C., 20 hours, read-out: minimum inhibitory concentration
Procedure: as §1, §2, §3

[12] = tested on: Comamonas terrigena B-996; assay: as above; assay type: cell-based; conditions: B996, agar dilution, 35° C., 20 hours, read-out: minimum inhibitory concentration
Procedure: as §1, §2, §3

[13] = tested on: Escherichia coli K-12; assay: as above; assay type: cell-based; conditions: K12, agar dilution, 35° C., 20 hours, read-out: minimum inhibitory concentration
Procedure: as §1, §2, §3

[14] = tested on: Staphylococcus aureus Russell; assay: as above; assay type: cell-based; conditions: agar dilution, 35° C., 20 hours, read-out: minimum inhibitory concentration
Procedure: as §1, §2, §3

[15] = tested on: Staphylococcus aureus FDA 209P; assay: as above; assay type: cell-based; conditions: FDA209P, agar dilution, 35° C., 20 hours, read-out: minimum inhibitory concentration
Procedure: as §1, §2, §3

[16] = tested on: Proteus mirabilis P6; assay: as above; assay type: cell-based; conditions: P6, agar dilution, 35° C., 20 hours, read-out: minimum inhibitory concentration
Procedure: as §1, §2, §3

[17] = tested on: Serratia marcescens S18; assay: as above; assay type: cell-based; conditions: S18, agar dilution, 35° C., 20 hours, read-out: minimum inhibitory concentration
Procedure: as §1, §2, §3

[18] = tested on: Klebsiella pneumoniae K-13; assay: as above; assay type: cell-based; conditions: K13, agar dilution, 35° C., 20 hours, read-out: minimum inhibitory concentration
Procedure: as §1, §2, §3

[19] = tested on: Proteus rettgeri P7; assay: as above; assay type: cell-based; conditions: Providencia rettgeri, P7; agar dilution, 35° C., 20 hours; read-out: minimum inhibitory concentration
Procedure: as §1, §2, §3

[20] = tested on: Sarcina lutea; assay: as above; assay type: cell-based; conditions: Micrococcus luteus; agar dilution, 35° C., 20 hours; read-out: minimum inhibitory concentration
Procedure: as §1, §2, §3

[21] = tested on: Staphylococcus aureus Smith; assay: as above; assay type: cell-based; conditions: agar dilution, 35° C., 20 hours, read-out: minimum inhibitory concentration
Procedure: as §1, §2, §3

[22] = tested on: Enterobacter cloacae 45; assay: as above; assay type: cell-based; conditions: Enterobacter cloacae, 45; agar dilution, 35° C., 20 hours; read-out: minimum inhibitory concentration
Procedure: as §1, §2, §3

[23] = tested on: Citrobacter freundii GN 346; assay: as above; assay type: cell-based; conditions: GN346, agar dilution, 35° C., 20 hours, read-out: minimum inhibitory concentration
Procedure: as §1, §2, §3

[24] = tested on: Alcaligenes faecalis A 1; assay: as above; assay type: cell-based; conditions: A1, agar dilution, 35° C., 20 hours, read-out: minimum inhibitory concentration
Procedure: as §1, §2, §3

[25] = tested on: Staphylococcus aureus Smith strain; assay: Infection treating test; assay type: in vivo, Staphylococcus aureus (in ddy male mice); conditions: sc, 2 h, mice infected intraperitoneally, 5×10^5 cells per mouse, subcutaneous, two hours after infection, read-out: CD50 (the source's name)
Procedure: The in vivo activities of the compounds of formula (I-d) were determined by using mice (five per group, ddy male mice, Shizuoka) which had been intraperitoneally infected with Staphylococcus aureus Smith strain in an amount of 5×10^5 cells per mouse. Two hours after the infection, an injection containing a sodium salt of each of the compounds of formula (I-d) was subcutaneously administered to the mice.

[26] = tested on: Gram-positive and Gram-negative bacteria; assay: antibiotic activity (antimicrobial spectrum); assay type: cell-based; conditions: comparison in words
Procedure: as §2, §3

Row | SMILES | MIC [1] [mg/L] | MIC [2] [mg/L] | MIC [3] [mg/L] | MIC [4] [mg/L] | MIC [5] [mg/L] | MIC [6] [mg/L] | MIC [7] [mg/L] | MIC [8] [mg/L] | MIC [9] [mg/L] | MIC [10] [mg/L] | MIC [11] [mg/L] | MIC [12] [mg/L] | MIC [13] [mg/L] | MIC [14] [mg/L] | MIC [15] [mg/L] | MIC [16] [mg/L] | MIC [17] [mg/L] | MIC [18] [mg/L] | MIC [19] [mg/L] | ED50 [25] [mg/kg] | other results
1 | CC(O)C1C(=O)N2C(C(=O)O)=C(Sc3ccncc3)CC12 (stereo not drawn) [Example 60, 5,6-cis-3-(4-Pyridylthio)-6-(1-hydroxyethyl)-7-oxo-1-azabicyclo[3.2.0]hept-2-ene-2-carboxylic acid] | 50 (≈ 163 µM) | < 0.007 | 1.56 (≈ 5.09 µM) | 0.025 (≈ 0.0816 µM) | 50 (≈ 163 µM) | < 0.007 | 6.25 (≈ 20.4 µM) | 0.2 (≈ 0.653 µM) | 1.56 (≈ 5.09 µM) | 1.56 (≈ 5.09 µM) | 25 (≈ 81.6 µM) | < 0.007 | 0.05 (≈ 0.163 µM) | < 0.007 | < 0.007 | 0.39 (≈ 1.27 µM) | 50 (≈ 163 µM) | 25 (≈ 81.6 µM) | 0.78 (≈ 2.55 µM) | 0.125 | MIC [20]: < 0.007 mg/L; MIC [21]: < 0.007 mg/L; MIC [22]: 6.25 mg/L (≈ 20.4 µM); MIC [23]: 6.25 mg/L (≈ 20.4 µM); MIC [24]: < 0.007 mg/L
2 | CC(O)C1C(=O)N2C(C(=O)O)=C(Sc3ncccn3)CC12 (stereo not drawn) [Example 64, 5,6-cis-3-(2-Pyrimidinylthio)-6-(1-hydroxyethyl)-7-oxo-1-azabicyclo[3.2.0]hept-2-ene-2-carboxylic acid] | 25 (≈ 81.3 µM) | < 0.007 | 3.13 (≈ 10.2 µM) | 0.013 (≈ 0.0423 µM) | 6.25 (≈ 20.3 µM) | 0.025 (≈ 0.0813 µM) | 1.56 (≈ 5.08 µM) | 0.2 (≈ 0.651 µM) | 25 (≈ 81.3 µM) | 25 (≈ 81.3 µM) | 12.5 (≈ 40.7 µM) | < 0.007 | 0.1 (≈ 0.325 µM) | 0.013 (≈ 0.0423 µM) | < 0.007 | 0.78 (≈ 2.54 µM) | 12.5 (≈ 40.7 µM) | 25 (≈ 81.3 µM) | 1.56 (≈ 5.08 µM) | 0.25 | MIC [20]: < 0.007 mg/L; MIC [21]: 0.025 mg/L (≈ 0.0813 µM); MIC [22]: 12.5 mg/L (≈ 40.7 µM); MIC [23]: 6.25 mg/L (≈ 20.3 µM); MIC [24]: 0.05 mg/L (≈ 0.163 µM)
3 | CC(=O)NCCSC1=C(C(=O)O)N2C(=O)C(C(C)O)C2C1 (stereo not shown) [PS-3, 3-(2-acetamidoethylthio)-6-(1-hydroxyethyl)-7-oxo-1-azabicyclo[3.2.0]hept-2-ene-2-carboxylic acid] | – | – | – | – | – | – | – | – | – | – | – | – | – | – | – | – | – | – | – | – | antibiotic activity (in words) [26]: better antibiotic activity than cephazolin (CEZ)
4 | CC(=O)NCCSC1=C(C(=O)O)N2C(=O)C(C(C)O)C2C1 (stereo not shown) [PS-3B . Na, reference compound] | – | – | – | – | – | – | – | – | – | – | – | – | – | – | – | – | – | – | – | 2 | –
